Experimental data reported in patent US20240118559A1, “SUSTAINED RELEASE OF OLEIC ACID FROM CONTACT LENSES” (CooperVision International Limited, priority 2022, published 2024).
Structures can show the parent of a compound that is named as a salt.

Key:
[1] = target: T1, recombinant human PLA2G2A (sPLA2) (Homo sapiens, UniProt P14555); experiment: Oleic acid release from phospholipid-loaded stenfilcon A lenses in ATF with and without sPLA2 (digestion assay, LCMS); type: biochemical; conditions: 35±2° C., 4 hours; for Oleic acid peak area in ATF + sPLA2: ATF with 50 ppm recombinant human PLA2G2A; for Oleic acid peak area in ATF + sPLA2 / Oleic acid peak area in ATF: 4 mm piece of loaded stenfilcon A lens, 100 μL; for Oleic acid peak area in ATF: ATF without sPLA2
T1 construct: purchased Creative BioMart PLA2G2A-669H
T1 sequence (P14555 21-144): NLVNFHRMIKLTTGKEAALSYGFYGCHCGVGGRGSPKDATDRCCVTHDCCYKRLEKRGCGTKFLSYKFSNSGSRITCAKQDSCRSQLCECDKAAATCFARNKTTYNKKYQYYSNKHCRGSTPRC
Method: The phospholipids shown in Table 1 were obtain from Avanti Polar Lipids. 3 mg/ml loading solutions of the phospholipids shown in Table 1 were prepared by adding 2.4 mL ethanol to 9 mg of phospholipid, sonicating (up to 15 minutes) then adding 0.6 mL DI water and sonicating again (up to 15 minutes) to dissolve the phospholipid.
Hydrated contact lenses made from stenfilcon A were washed three times in 3 mL purified water for 30 minutes each time. Each washed lens was placed in 3 mL of a phospholipid loading solution and incubated at room temperature with gentle shaking at 75 rpm for 3 hours. The loaded lenses were then rinsed and hydrated in several exchanges of DI water. The lenses were packaged in a buffered saline contact lens packaging solution and autoclaved.
An artificial tear fluid (ATF) was prepared by adding the first three ingredients listed in Table 2 to a clean class vial and then adding 30 mL of the fourth ingredient.
After autoclave each lens was removed from its package and place in a 6 mL glass vial containing 5 mL of the ATF at room temperature on a shaker at 125 rpm overnight to elute any free oleic acid that may be present in the lens.
Each lens was rinsed in a 6 ml glass vial containing a fresh aliquot of 5 mL ATF for 30 minutes prior to running the digestion assay.
A 50 ppm solution of sPLA2 was prepared in ATF by adding 200 μl ATF to a tube containing 10 μg recombinant human PLA2G2A (Creative BioMart, Cat. No. PLA2G2A-669H). The solution is referred to as ATF+sPLA2. Two 4 mm pieces were cut from each lens. One piece of each lens was placed in a tube with 100 μL ATF and the other piece was placed in a tube containing 100 μL ATF+sPLA2. The tubes were incubated at 35±2° C. for 4 hours with no shaking.
50 μl of the release media from each lens at T=4 hr was transferred to HPLC vials and 500 μl isopropanol (IPA) was added and mixed well. T=0 hr HPLC vials were also prepared (50 μl ATF+500 μl IPA). All vials were sonicated for 15 minutes and centrifuged. The supernatant was removed for LCMS injection.
The supernatants were injected on an LCMS instrument equipped with an ACQUITY UPLC BEH C18 […], 2.1 mm×15 cm column and running a mobile phase gradient from 65% A to 90% B at a flow rate of 0.35 mL/min with A=40% acetonitrile in water with 10 mM ammonium acetate and 0.2% (v/v) ammonium hydroxide, and B=10% acetonitrile in IPA with 10 mM ammonium acetate and 0.2% (v/v) ammonium hydroxide. The mass spec detector is run at negative electrospray mode. The peaks for oleic acid (OA) in the supernatants were measured (m/z trace=281.24). The ratio of OA peak area in ATF with and without sPLA2 was calculated.

[2] = tested on: sPLA2 enzymes found in human tears; experiment: Susceptibility to digestion by sPLA2 enzymes found in human tears when present in a silicone hydrogel contact lens body; type: biochemical; conditions: phospholipid present in a silicone hydrogel contact lens body
Excerpt: To achieve these and other advantages, and in accordance with the purposes of the present invention, as embodied and broadly described herein, the present invention, in part relates to a hydrogel contact lens comprising a polymeric lens body loaded with 2-oleoyl phospholipid. The 2-oleoyl phospholipid is advantageously susceptible to digestion by secretory phospholipase 2-acylhydrolase (sPLA2) enzymes found in human tears, especially group IIA secretory phospholipase 2-acylhydrolase (sPLA2-IIA). The 2-oleoyl phospholipid present in the contact lens body is advantageously susceptible to digestion by sPLA2 enzymes found in human tears, especially sPLA2-IIA when the 2-oleoyl phospholipid is present in the polymeric lens body of a silicone hydrogel contact lens, such as a stenfilcon A contact lens. […] For the avoidance of doubt, while the determination of whether a 2-oleoyl phospholipid is susceptible to digestion by sPLA2 enzymes may be carried out by loading the 2-oleoyl phospholipid to a stenfilcon A lens, the contact lens of the invention, including contact lenses comprising 2-oleoyl phospholipid that have been determined to be susceptible to digestion by sPLA2 enzymes, need not be stenfilcon A lenses and may be silicone hydrogel lenses of any formulation. […]

| Structure (SMILES) | Ratio of OA peak area in ATF with and without sPLA2 [1] | Oleic acid peak area in ATF + sPLA2 [1] | Oleic acid peak area in ATF [1] | Susceptibility to digestion by sPLA2 enzymes found in human tears [2] |
| --- | --- | --- | --- | --- |
| CCCCCCCC/C=C\CCCCCCCC(=O)OC[C@H](COP(=O)(O)OC[C@H](N)C(=O)O)OC(=O)CCCCCCC/C=C\CCCCCCCC [DOPS, 1,2-dioleoyl-sn-glycero-3-phospho-L-serine (sodium salt)] | 16.4 | 1437 | 88 |  |
| CCCCCCCCCCCCCC(=O)OC[C@H](COP(=O)([O-])OCC[N+](C)(C)C)OC(=O)CCCCCCCCCCCCC [DMPC, 1,2-dimyristoyl-sn-glycero-3-phosphocholine] |  |  |  | not be susceptible to digestion |

Results, then the compound that gave them:

| Ratio of OA peak area in ATF with and without sPLA2 [1] | Oleic acid peak area in ATF + sPLA2 [1] | Oleic acid peak area in ATF [1] | Susceptibility to digestion by sPLA2 enzymes found in human tears [2] | Structure (SMILES) |
| --- | --- | --- | --- | --- |
| 1.2 | 125 | 102 |  | CCCCCCCC/C=C\CCCCCCCC(=O)OC[C@H](COP(=O)([O-])OCC[N+](C)(C)C)OC(=O)CCCCCCC/C=C\CCCCCCCC [DOPC, 1,2-dioleoyl-sn-glycero-3-phosphocholine, reference compound] |
| 4.6 | 2127 | 463 |  | CCCCCCCC/C=C\CCCCCCCC(=O)OC[C@H](COP(=O)(O)OCCN)OC(=O)CCCCCCC/C=C\CCCCCCCC [DOPE, 1,2-dioleoyl-sn-glycero-3-phosphoethanolamine] |
| 279 | 9958 | 36 |  | CCCCCCCC/C=C\CCCCCCCC(=O)OC[C@H](COP(=O)([O-])OCC(O)CO)OC(=O)CCCCCCC/C=C\CCCCCCCC.[Na+] (mixture of isomers) [DOPG, 1,2-dioleoyl-sn-glycero-3-phospho-(1′-rac-glycerol) (sodium salt)] |
